From the supplement of paper PMC10307832

Legend:
Experiment in all cases: relative viability (nuclei count vs DMSO), 5 days (fraction); higher = more cells survive
[1] = compound: C1COCCN1C2=NC(=NC3=C2OC4=C3C=CC=N4)C5=CC(=CC=C5)NC(=O)C6=CN=C(C=C6)N + CCNC(=O)c1noc(-c2cc(C(C)C)c(O)cc2O)c1-c1ccc(CN2CCOCC2)cc1 [Luminespib] (partner 0.01 µM)
Outline: (§1)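 Each reported value is a median over duplicate plates. It expresses relative viability: treated-well nuclei count divided by vehicle-well nuclei count. Lung cancer cell lines in 1536-well plates were dosed by pin tool a day after seeding, alone with one drug or with a fixed anchor-drug dose plus five library-drug doses (not always all listed) in √10 steps, and nuclei were counted after 5 days.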

[2] = compound: C1COCCN1C2=NC(=NC3=C2OC4=C3C=CC=N4)C5=CC(=CC=C5)NC(=O)C6=CN=C(C=C6)N + C[C@@H](Oc1cc(-c2cnn(C3CCNCC3)c2)cnc1N)c1c(Cl)ccc(F)c1Cl [Crizotinib] (partner 1 µM)
Outline: as §1

[3] = compound: C1COCCN1C2=NC(=NC3=C2OC4=C3C=CC=N4)C5=CC(=CC=C5)NC(=O)C6=CN=C(C=C6)N + NC(=O)Nc1cc(-c2cccc(F)c2)sc1C(=O)N[C@H]1CCCNC1 [AZD7762] (partner 0.2 µM)
Outline: as §1

[4] = compound: CN1CCC(CNc2ccc3ncc(-c4cccc(OC(F)(F)F)c4)n3n2)CC1 [SGI-1776] + CS(=O)(=O)CCNCc1ccc(-c2ccc3ncnc(Nc4ccc(OCc5cccc(F)c5)c(Cl)c4)c3c2)o1 [Lapatinib] (partner 2 µM)
Outline: as §1

| Cell Line | relative viability ([1]; first compound 0.02 µM) | relative viability ([1]; first compound 0.06325 µM) | relative viability ([1]; first compound 0.2 µM) | relative viability ([1]; first compound 0.6325 µM) | relative viability ([1]; first compound 2 µM) | relative viability ([2]; first compound 0.02 µM) | relative viability ([2]; first compound 0.06325 µM) | relative viability ([2]; first compound 0.2 µM) | relative viability ([2]; first compound 0.6325 µM) | relative viability ([2]; first compound 2 µM) | relative viability ([3]; first compound 0.02 µM) | relative viability ([3]; first compound 0.06325 µM) | relative viability ([3]; first compound 0.2 µM) | relative viability ([3]; first compound 0.6325 µM) | relative viability ([3]; first compound 2 µM) | relative viability ([4]; first compound 0.08 µM) | relative viability ([4]; first compound 0.8 µM) | relative viability ([4]; first compound 2.53 µM) | relative viability ([4]; first compound 8 µM) |
| --- | --- | --- | --- | --- | --- | --- | --- | --- | --- | --- | --- | --- | --- | --- | --- | --- | --- | --- | --- |
| LCLC-103H | 0.99 | 1.04 | 0.89 | 1.1 | 0.461 | 1.03 | 1.15 | 1.09 | 0.957 | 0.974 | 0.809 | 0.784 | 0.8 | 0.81 | 0.631 |  |  |  |  |
| RERF-LC-KJ | 1.22 | 1.3 | 1.02 | 1.38 | 0.633 | 1.02 | 0.913 | 0.798 | 0.794 | 0.748 | 0.882 | 1.18 | 0.997 | 0.945 | 0.794 | 0.867 | 0.868 | 0.728 | 0.795 |
| EBC-1 |  |  |  |  |  | 0.209 | 0.196 | 0.197 | 0.168 | 0.172 |  |  |  |  |  | 0.207 | 0.214 | 0.182 | 0.138 |
| HCC-15 | 0.33 | 0.251 | 0.292 | 0.234 | 0.242 | 0.824 | 0.938 | 0.843 | 0.819 | 0.545 | 1.29 | 1.28 | 1.24 | 1.06 | 0.982 | 0.821 | 0.882 | 0.933 | 0.786 |
| NCI-H1650 | 0.186 | 0.202 | 0.198 | 0.233 | 0.166 | 1 | 1.05 | 0.94 | 1.06 | 0.601 |  |  |  |  |  | 0.877 | 0.983 | 0.809 | 0.343 |
| COR-L 105 | 0.975 | 0.682 | 0.677 | 0.674 | 0.472 | 0.792 | 0.722 | 0.567 | 0.752 | 0.481 |  |  |  |  |  | 0.332 | 0.394 | 0.388 | 0.244 |
| NCI-H596 | 0.985 | 1.04 | 0.968 | 0.992 | 0.408 | 1.1 | 0.983 | 0.99 | 0.942 | 0.746 | 1.15 | 1.06 | 0.97 | 1.06 | 0.929 | 1.08 | 1.06 | 0.906 | 0.825 |
| LXF-289 | 0.598 | 0.798 | 0.783 | 0.494 | 0.321 | 0.859 | 0.903 | 0.821 | 0.858 | 0.604 | 1.08 | 1.3 | 1.08 | 1.09 | 0.67 | 0.945 | 0.941 | 0.893 | 0.895 |
| NCI-H1703 |  |  |  |  |  | 0.357 | 0.731 | 0.506 | 0.401 | 0.416 | 0.143 | 0.146 | 0.127 | 0.108 | 0.124 | 1.3 | 0.922 | 0.608 | 0.257 |
| NCI-H2170 | 0.579 | 0.893 | 0.723 | 0.606 | 0.584 | 1.31 | 1.37 | 1.25 | 1.12 | 0.668 | 0.914 | 1.05 | 0.798 | 0.837 | 0.488 | 0.263 | 0.269 | 0.275 | 0.275 |
